According to patent US9782368B2, “Use of N,N-bis-2-mercaptoethyl isophthalamide” (EMERAMED LIMITED, priority 2014, dated 2017):

Experiments:
[1] = system: COPD; test: Treatment of patient with COPD; assay type: in vivo, human
Method: A retired person residing in the USA, who had been medically diagnosed with COPD several years earlier, regularly experienced coughing fits two to four times in any 24 hour period, beginning at any hour of the day or night and lasting from about 40 to 75 minutes. As a consequence of these coughing fits, the patient's breathing was shallow, their throat irritated, their voice was raspy, their energy levels very low and their quality of life very poor.

[2] = system: IL-6 and IL-8 secretion in A549 cells; test: Particle-induced secretion of pro-inflammatory cytokines (ELISA) in A549 cells; assay type: cell-based; conditions: A549 cells
Method: Secretion of the pro-inflammatory cytokines interleukin (IL)-6, IL-8 (as well as GM-CSF and MCP-1) into cell media in response to particle exposure was measured in A549 and BEAS-2B cells using the following method.
Lung epithelial cells were seeded at 5×10^4 in 24-well plates. After pre-incubation with NBMI, the anti-oxidant compound, N-acetyl-L-cysteine (NAC), which was used as a positive control, or vehicle, for 3 hours the medium was removed.
Fresh media containing various particles (as below) in different concentrations was in a total volume of 0.5 ml for an additional 24 hours. The supernatants were then separated from the cells by centrifugation.
IL-8, IL-6, GM-CSF and MCP-1 were measured in the cell free fluid using the DuoSet ELISA Development kit (R&D Systems, Abingdon, UK) according to manufacturer's protocol.
Exposure to medium only served as negative control. Each experiment was performed twice with 4 replicates.
The effect of pre-incubation with 50 μM NBMI on particle-induced cytokine formation was tested at various concentrations of relevant particles.

[3] = system: cigarette smoke (CS)-induced airway disease; test: In vivo smoking mouse study I (14-day cigarette smoke exposure); parameters: species or system BALB/c mice
Method: A mouse model of cigarette smoke (CS)-induced airway disease was developed, in which four groups of BALB/c mice were exposed to CS (nose-only) using a cigarette smoking machine that produces a combination of side-stream and mainstream smoke from filtered research cigarettes, 7 days a week over 2 weeks.
As part of a 14-day dose-finding study, three groups of mice were administered NMBI subcutaneously (5, 30 or 150 mg/kg) before each exposure to CS. Inflammatory cell counts in bronchoalveolar lavage (BAL), flow cytometry (FACS) analysis and cytokine analysis in BAL were carried out.
Female BALB/c mice (Harlem laboratories, Netherlands) were used in this study. They were housed in plastic cages with absorbent bedding material and were maintained on a 12 hour daylight cycle. Food and water were provided ad libitum. Their care and the experimental protocols were approved by the Regional Ethics Committee on Animal Experiments in Umeå. Mice were 12 weeks of age when the cigarette exposure protocol started.
Animals were subjected to inhaled CS (both side-stream and main-stream smoke). The CS exposure was performed in a microprocessor-controlled cigarette smoking machine (TE-10, Teague Enterprises, CA, USA) that produces smoke from research cigarettes (1R5F, University of Kentucky, Lexington, Ky., USA).
Cigarettes are automatically loaded into a wheel, lit, puffed and ejected. Each cigarette was smoked for 10 minutes and the airflow through the machine was set to 12 L/min. Cigarettes were stored at −20° C. until needed. Mice were subjected to 4 cigarettes every 10 minutes×3 (i.e. 12 cigarettes over 30 minutes), once a day, 7 days a week, over two weeks. The smoke was transferred into a smoke tower (EMMS, UK) providing equal and simultaneous exposure to the CS.
Mice were placed into plastic chambers and subjected to CS by “nose-only” inhalation. Control mice were handled every day and breathed room-air, but were not taken out of their cages.
Accordingly, the 5 treatment groups are as follows: • 1. Daily exposure to clean air (Placebo Group) • 2. Daily exposure to CS (CS-Exposed Placebo Group) • 3. Daily exposure to CS; treated with NBMI at a 5 mg/kg dose (NBMI 5 mg/kg Group) • 4. Daily exposure to CS; treated with NBMI at a 30 mg/kg dose (NBMI 30 mg/kg Group) • 5. Daily exposure to CS; treated with NBMI at a 150 mg/kg dose (NBMI 150 mg/kg Group)
On Day 15, mice were exsanguinated and subjected to bronchoalveolar lavage (BAL). The lungs were lavaged four times via the tracheal tube with a total volume of 1 mL+3×1 mL Ca^2+/Mg^2+ free Hanks' balanced salt solution (HBSS, Sigma-Aldrich, Steinheim, Germany).
The BAL fluid was then immediately centrifuged (10 minutes, 4° C., 1750 rpm). After removing the supernatant until further analysis, the cell pellet was re-suspended and then diluted with 0.5 mL PBS. Leukocytes were counted manually in a hemocytometer so that 20,000 cells could be loaded and centrifuged using a Cytospin® centrifuge (Shandon® cytospin 3 cyto-centrifuge, cell preparation system).
Cytocentrifuged preparations were stained with May-Grünwald-Giemsa reagent and differential cell counts of pulmonary inflammatory cells (macrophages, neutrophils, lymphocytes, and eosinophils) were made using standard morphological criteria and counting 300 cells per cytospin preparation.
Inflammatory mediators in BAL and serum were analyzed for the presence of interleukin (IL)-1α, IL-1β, IL-2, IL-3, IL-4, IL-5, IL-6, IL-9, IL-10, IL-12p40, IL-12p70, IL-13, IL17, Eotaxin, G-CSF, INFγ, GM-CSF, KC, MCP-1, MIP-1α, MIP-Iβ, RANTES and TNFα. All cytokine analyses were performed simultaneously with a multiplex kit (BioPlex™ Pro Mouse Cytokine 23-plex panel) according to the manufacturer's instructions (Bio-Rad) and analyzed on a Bio-Plex™ system (Luminex Bio-Plex™ 200 System, Bio-Rad, Hercules, Calif.).
Leukocytes from BAL were analyzed with flow cytometry using a BD FACSort™ (Becton Dickinson, San Jose, Calif.). […]

[4] = by the eighth day, 100 mg capsule three times daily
[5] = TiO2 P25 75 μg/cm^2, pre-incubation 50 μM NBMI
[6] = Urban Dust 100 μg/cm^2, pre-incubation 50 μM NBMI

For O=C(NCCS)c1cccc(C(=O)NCCS)c1 [NBMI, N,N-bis-2-mercaptoethyl isophthalamide], the “symptoms of COPD” value ([1]; 100 mg capsule three times daily for eight days, one patient) was “marked improvement in symptoms”, the breathing [1, 4] was “significantly improved breathing” and the coughing fits [1, 4] was “no coughing fits”. The “reduction of secretion of IL-6” value [2, 5] was 38%, the “reduction of secretion of IL-8” value [2, 5] was 29% and the “reduction of secretion of IL-6” value [2, 6] was 38%. For the same compound, the “reduction of secretion of IL-8” value [2, 6] was 30%, the “MIP-1α levels in BAL vs CS-Exposed Placebo Group” value ([3]; 5 mg/kg s.c., p<0.05) was “lowered” and the “IL-10 level in serum” value ([3]; 30 mg/kg s.c.) was “increased levels”. The “Eotaxin level in serum vs CS-Exposed Placebo Group” value ([3]; 150 mg/kg s.c.) was “significantly lowered levels”, the “IL-1β level in serum vs CS-Exposed Placebo Group” value ([3]; 150 mg/kg s.c.) was “significantly lowered levels” and the “IL-3 level in serum vs CS-Exposed Placebo Group” value ([3]; 150 mg/kg s.c.) was “significantly lowered levels”. The “IL-6 level in serum vs CS-Exposed Placebo Group” value ([3]; 150 mg/kg s.c.) was “significantly lowered levels”, the “MIP-1α level in serum vs CS-Exposed Placebo Group” value ([3]; 150 mg/kg s.c.) was “significantly lowered levels” and the “RANTES level in serum vs CS-Exposed Placebo Group” value ([3]; 150 mg/kg s.c.) was “significantly lowered levels”. For the same compound, the “wounds at injection site” value ([3]; 150 mg/kg s.c., 14 days) was “established wounds in the neck”, the ulceration ([3]; 5 and 30 mg/kg s.c., 14 days) was “no signs of ulceration” and the “weight change from Day 1 to Day 15” value ([3]; CS-exposed, regardless of dose of NBMI) was “lost weight significantly”. For the same compound, the final weight ([3]; Day 15, 5 mg/kg s.c., CS-exposed, vs CS-exposed 20.3±0.3 g, p<0.05) was 19.5 ± 0.3 g, the “neutrophils in BAL vs mice just exposed to CS” value ([3]; Day 15, 30 mg/kg s.c.) was “significantly lower numbers of neutrophils” and the “neutrophils in BAL vs mice just exposed to CS” value ([3]; Day 15, 150 mg/kg s.c.) was “significantly lower numbers of neutrophils”. For the same compound, the “CD4 cells and CD8 cells in BAL fluid” value ([3]; all groups (5, 30, 150 mg/kg)) was “no significant differences”.
